The test deals with FKBP12 (Homo sapiens, UniProt P62942). Briefly: FKBP12 Rotamase Inhibition Assay. It is filed as biochemical. Particulars: for inhibition at 10 µM: read-out: % inhib. at 10 μM; for Ki: apparent Ki, 4° C., substrate succinyl-Ala-Leu-Pro-Phe-p-nitroanilide. As for the experimental part:
FKBP12 Rotamase Inhibition Assay
The rotamase activity of FKBP-12 was measured by an adaptation of the assay described by Kofron et al. (Biochemistry, 30, pp. 6127-6134 (1991)). The assay was carried out at 4° C. with 1 mg chymotrypsin/mL of assay with succinyl-Ala-Leu-Pro-Phe-p-nitroanilide as the substrate. Chymotrypsin rapidly hydrolyzes the peptide bond on the C-terminal side of the Phe of the trans form of the peptide and releases the chromogenic p-nitroaniline. The rate of the reaction is controlled by the rate of conversion of the cis form of the peptide to the trans-form, the reaction catalyzed by FKBP12. The apparent Ki values for inhibition of the rotamase activity were determined by measuring decreases in the first order rate constant of the reaction catalyzed by FKBP12 as a function of the concentrations of the compounds described herein. Ki is the concentration of the compound that causes 50 percent inhibition of rotamase activity which is indicative of neurite outgrowth activity.

[1] abbreviates: Table 2, 1 μM (values marked *), read-out: % inhib. at 1 μM*.
The mark [2] stands for this setting: Table 3, 1 μM, read-out: % rotamase inhib. at 1 μM.

Read-outs that look alike come from different tables or passages of the source.

Sequence of FKBP12 (P62942 whole entry, species assumed): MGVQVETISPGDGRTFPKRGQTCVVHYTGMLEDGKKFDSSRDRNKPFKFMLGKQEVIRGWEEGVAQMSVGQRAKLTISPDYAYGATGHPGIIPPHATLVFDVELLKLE

On to `COc1cc(C(F)(F)C(=O)N2CCC[C@H]2COC(=O)N(CCCc2cccnc2)CCc2ccccc2)cc(OC)c1OC` [Example 27, N-(3,4,5-Trimethoxyphenyl)-difluoroacetyl-L-pyrrolidinylmethyl-[N',N'-3-(3-pyridyl)propyl-2-phenylethylamino]carbamate], for which, where the note is “Table 2”, the inhibition at 10 µM came to 97% and the Ki was found to be 234 nM. Take `COc1cc(C(F)(F)C(=O)N2CCC[C@H]2COC(=O)N(CCCc2cccnc2)Cc2ccccc2)cc(OC)c1OC` [Example 28, N-(3,4,5-Trimethoxyphenyl)-difluoroacetyl-L-pyrrolidinylmethyl-[N',N'-3-(3-pyridyl)propyl-benzylamino]carbamate]: for the setting “Table 2”, the inhibition at 10 µM amounted to 99% and the Ki was 577 nM. Regarding `COc1cc(C(F)(F)C(=O)N2CCC[C@H]2COC(=O)N(CCCCc2cccnc2)CCCc2ccccc2)cc(OC)c1OC` [Example 29, N-(3,4,5-Trimethoxyphenyl)-difluoroacetyl-L-pyrrolidinylmethyl-[N',N'-4-(3-pyridyl)butyl-3-phenylpropylamino]carbamate], under setting [1], the inhibition at 1 µM is 80%. `COc1cc(C(F)(F)C(=O)N2CCC[C@H]2COC(=O)N(CCCCc2cccnc2)CCc2ccccc2)cc(OC)c1OC` [Example 30, N-(3,4,5-Trimethoxyphenyl)-difluoroacetyl-L-pyrrolidinylmethyl-[N',N'-4-(3-pyridyl)butyl-2-phenylethylamino]carbamate]: the inhibition at 10 µM (Table 2) came out at 97%. Turning to `COc1cc(C(F)(F)C(=O)N2CCC[C@H]2COC(=O)N(CCCCc2cccnc2)Cc2ccccc2)cc(OC)c1OC` [Example 31, N-(3,4,5-Trimethoxyphenyl)-difluoroacetyl-L-pyrrolidinylmethyl-[N',N'-4-(3-pyridyl)butyl-benzylamino]carbamate], the inhibition at 1 µM under setting [1] is 63%. The Ki (Table 2) came to 686 nM. With `COc1cccc(CCN(CCCc2cccnc2)C(=O)OC[C@@H]2CCCN2C(=O)C(F)(F)c2cc(OC)c(OC)c(OC)c2)c1` [Example 32, N-(3,4,5-Trimethoxyphenyl)-difluoroacetyl-L-pyrrolidinylmethyl-[N',N'-3-(3-pyridyl)propyl-2-(3-methoxyphenyl)ethylamino]carbamate], under setting [2], the inhibition at 1 µM was 93%. `COc1ccc(CCN(CCCc2cccnc2)C(=O)OC[C@@H]2CCCN2C(=O)C(F)(F)c2cc(OC)c(OC)c(OC)c2)cc1OC` [Example 33]: the inhibition at 1 µM under setting [2] stood at 96%. In the case of `COc1cc(C(F)(F)C(=O)N2CCC[C@H]2COC(=O)N(CCCc2cccnc2)CCc2cccc(C(F)(F)F)c2)cc(OC)c1OC` [Example 34, N-(3,4,5-Trimethoxyphenyl)-difluoroacetyl-L-pyrrolidinylmethyl-[N',N'-3-(3-pyridyl)propyl-2-(3-trifluoromethylphenyl)ethylamino]carbamate], the inhibition at 1 µM under setting [2] was found to be 96%. Consider `COc1cc(C(F)(F)C(=O)N2CCC[C@H]2COC(=O)N(CCCc2ccc(C(=O)O)cc2)CCCc2cccnc2)cc(OC)c1OC` [Example 35, N-(3,4,5-Trimethoxyphenyl)-difluoroacetyl-L-pyrrolidinylmethyl-[N',N'-3-(3-pyridyl)propyl-3-(4-carboxyphenyl)propylamino]carbamate], for which the inhibition at 1 µM under setting [2] worked out at 94%.

As to `COc1cc(C(F)(F)C(=O)N2CCC[C@H]2COC(=O)N(CCCc2ccc(C(=O)OCc3ccccc3)cc2)CCCc2cccnc2)cc(OC)c1OC` [Example 36, N-(3,4,5-Trimethoxyphenyl)-difluoroacetyl-L-pyrrolidinylmethyl-[N',N'-3-(3-pyridyl)propyl-3-(4-benzyloxycarbonylphenyl)propylamino]carbamate], under setting [2], the inhibition at 1 µM was found to be 77%. Take `COc1cccc(CCCN(CCCc2cccnc2)C(=O)OC[C@@H]2CCCN2C(=O)C(F)(F)c2cc(OC)c(OC)c(OC)c2)c1` [Example 37, N-(3,4,5-Trimethoxyphenyl)-difluoroacetyl-L-pyrrolidinylmethyl-[N',N'-3-(3-pyridyl)propyl-3-(3-methoxyphenyl)propylamino]carbamate]: the inhibition at 1 µM under setting [2] was 93%.

The record behind these values is patent US6228872A, “Neurotrophic diamide and carbamate agents” (Bristol-Myers Squibb Company, priority 1999, dated 2001).
